Measured values published in PubChem BioAssay (NCI).
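Interpolation was linear, between the two tested concentrations surrounding the appropriate level; five concentrations were tested over 48 hours in 96-well plates. GI50 = concentration required for 50% inhibition of growth. TGI: total growth inhibition.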

tested on: MDA-MB-468 breast; test: NCI anticancer screen, dose series, 48 h

Q: With `O=C1NC(=NCCc2ccc(F)cc2)S/C1=C\c1ccc2ncccc2c1` as the compound, how does the GI50 read?
A: The GI50 was > 20.9 µM.

Q: What about the TGI of the same compound?
A: Its TGI is > 25 µM.

Q: For `CC(C)(C)c1cc(C(=O)Nc2ccccc2C(=O)NCCN)cc(C(C)(C)C)c1`, which GI50 is on record?
A: The GI50 was 2.01 µM.

Q: And the TGI?
A: The TGI was 3.59 µM.

Q: Which GI50 does the source give for `NS(=O)(=O)c1ccc(Nc2cc(-c3ccc(O)c(F)c3)[nH]n2)cc1` here?
A: Its GI50 is 10.5 µM.

Q: And the TGI?
A: The TGI was > 25 µM.

Q: For `COc1cc2c(c(OC)c1OC)-c1ccc(NN(C(=O)c3ccccc3)C(=O)c3ccccc3)c(=O)cc1[C@@H](NC(C)=O)CC2` (tested in a mixture with another compound), which GI50 is on record?
A: The GI50 was 2.08 µM.

Q: And the TGI?
A: The TGI was 6.71 µM.

Q: How did the GI50 turn out when `c1ccc(-c2oc(-c3ccccc3)c(CN3CCCCC3)c2CN2CCCCC2)cc1` was run?
A: The GI50 was 1.45 µM.

Q: What about the TGI of the same compound?
A: The TGI was 3.98 µM.

Q: Which results are given for `COc1cc(/C=C2\C(=O)N(Cc3ccc(Cl)cc3)c3ccccc32)cc(OC)c1OC`?
A: GI50: 2.66 µM; TGI: 8.06 µM

Q: Which GI50 does the source give for `COc1cc(CNCCCCCCN2C(=O)c3cccc4cccc(c34)C2=O)ccc1O` here?
A: The GI50 was 2.78 µM.

Q: What about the TGI of the same compound?
A: Its TGI is 9.33 µM.

Q: `CN1CCN(CC(=O)N(C)c2ccc(N=C(c3ccccc3)c3c(O)[nH]c4ccc(C#N)cc34)cc2)CC1` was tested. Which GI50 did it give?
A: Its GI50 is 10.7 µM.

Q: What about the TGI of the same compound?
A: The TGI was 24.1 µM.

Q: Which results are given for `CC(=O)Nc1ccc(C(=O)CCl)cc1`?
A: GI50: 1.81 µM; TGI: 4.52 µM

Q: Which results are given for `CO[C@H]1C[C@@H]2CC[C@@H](C)[C@@](O)(O2)C(=O)C(=O)N2CCCC[C@H]2C(=O)O[C@H]([C@H](C)C[C@@H]2CC[C@@H](OC(=O)C(C)(CO)CO)[C@H](OC)C2)CC(=O)[C@H](C)/C=C(\C)[C@@H](O)[C@@H](OC)C(=O)[C@H](C)C[C@H](C)\C=C/C=C/C=C/1C`?
A: GI50: 0.00189 µM; TGI: > 10 µM

Q: `c1cc(N[C@@H]2CCNC2)nc(-c2cnc3ccc(-c4cn[nH]c4)cn23)c1` was tested. Which GI50 did it give?
A: The GI50 was 0.957 µM.

Q: What about the TGI of the same compound?
A: The TGI was 2.52 µM.

Q: For `O=C1/C(=C/c2ccc(Cl)c(Cl)c2)CN(C(=O)C(Cl)Cl)C/C1=C\c1ccc(Cl)c(Cl)c1`, which GI50 is on record?
A: Its GI50 is 0.177 µM.

Q: And the TGI?
A: Its TGI is 0.398 µM.

Q: Which results are given for `COc1cc2cc(Oc3ccc(NC(=O)Nc4cc(C(F)(F)F)cc(C(F)(F)F)c4)cc3)c(C)nc2cc1OCCN1CCOCC1`?
A: GI50: 1.22 µM; TGI: 3.76 µM

Q: For `CSC1=NC(=Nc2c(C)cccc2C)C2(CCC(C(C)(C)C)CC2)N1c1ccc(Cl)cc1` (stereo unspecified), which GI50 is on record?
A: The GI50 was 4.83 µM.

Q: What about the TGI of the same compound?
A: Its TGI is > 100 µM.

Q: `CCN1CCN(c2nc(C)cc(N(CCCNc3ccnc4cc(Cl)ccc34)Cc3ccc4c(c3)OCO4)n2)CC1` was tested. Which GI50 did it give?
A: The GI50 was 1.92 µM.

Q: And the TGI?
A: Its TGI is 4.93 µM.

Q: With `COc1ccc(-c2cc(-c3ccc(Nc4nc(Nc5ccccc5)nc(Nc5ccc(Cl)cc5)n4)cc3)nc(N)n2)cc1` as the compound, how does the GI50 read?
A: The GI50 was 10.2 µM.

Q: What about the TGI of the same compound?
A: The TGI was 34.2 µM.

Q: For `O=C1CC(c2c[nH]c3ccc(F)cc23)C(=O)N1` (stereo unspecified), which GI50 is on record?
A: The GI50 was > 100 µM.

Q: And the TGI?
A: The TGI was > 100 µM.

Q: Which GI50 does the source give for `COC1(CC[C@@H](C)COC2OC(CO)C(O)C(O)C2O)O[C@H]2C[C@H]3[C@@H]4CC=C5C[C@@H](OC6OC(CO)C(OC7OC(C)C(O)C(O)C7O)C(O)C6OC6OC(C)C(O)C(O)C6O)CC[C@]5(C)[C@H]4CC[C@]3(C)[C@H]2[C@@H]1C` (stereo partly specified) here?
A: Its GI50 is 1.38 µM.

Q: What about the TGI of the same compound?
A: The TGI was 3.01 µM.

Q: With `CN(C)c1ccc(/C=C\c2ccnc3ccccc23)cc1` as the compound, how does the GI50 read?
A: Its GI50 is 0.233 µM.

Q: And the TGI?
A: Its TGI is 0.564 µM.

Q: Which results are given for `O=C(Nc1ccc(Oc2ccc(F)cc2)cc1)[C@@H]1C[C@@H](Cc2ccc(F)cc2)CN1C(=O)Cn1ccnn1`?
A: GI50: 4.5 µM; TGI: 29 µM

Q: With `COc1cc2c(c(OC)c1OC)-c1ccc(SC)c(=O)cc1[C@@H](N)CC2` as the compound, how does the GI50 read?
A: The GI50 was 0.0786 µM.

Q: What about the TGI of the same compound?
A: Its TGI is > 100 µM.

Q: For `O=C1NC(=NCc2ccccc2Cl)S/C1=C\c1ccc2ncccc2c1`, which GI50 is on record?
A: Its GI50 is 3.61 µM.

Q: And the TGI?
A: The TGI was > 25 µM.

Q: With `CC(C)=CCc1cc2c(cc1O)C1=C(C(=O)C3=C(C1=O)S(=O)(=O)CCN3)C(C=C(C)C)O2` (stereo unspecified) as the compound, how does the GI50 read?
A: The GI50 was 0.54 µM.

Q: What about the TGI of the same compound?
A: The TGI was 2.59 µM.

Q: What does the source list for `COc1ccc(C(O)c2cc3c(N)c(C(=O)Nc4ccc(Cl)cc4)sc3nc2C)cc1` (stereo unspecified)?
A: GI50: 1.94 µM; TGI: 8.87 µM

Q: What does the source list for `O=C1Nc2ccc(Br)cc2C12CC(c1ccccc1)=NN2` (stereo unspecified)?
A: GI50: 3.04 µM; TGI: 41.8 µM

Q: Which GI50 does the source give for `O=C1Nc2ccc(Cl)cc2/C1=C\c1c(-c2ccc(Cl)cc2)nc2sc(C3CC3)nn12` here?
A: Its GI50 is 6.68 µM.

Q: What about the TGI of the same compound?
A: Its TGI is 21.2 µM.

Q: Which GI50 does the source give for `CCOCC1(COCC)CCC(c2[nH]ncc2CN(C)CCNC)CC1` here?
A: The GI50 was 46.6 µM.

Q: And the TGI?
A: The TGI was > 100 µM.

Q: How did the GI50 turn out when `C#Cc1cccc(Nc2ncnc3cc(NC(=O)CCl)ccc23)c1` was run?
A: Its GI50 is 0.716 µM.

Q: And the TGI?
A: Its TGI is 3.16 µM.

Q: `NCCN1CCN(c2nc(-c3ccccc3)nc3nc(-c4ccccc4)oc23)CC1` was tested. Which GI50 did it give?
A: Its GI50 is 1.63 µM.

Q: And the TGI?
A: The TGI was 3.2 µM.

Q: Which GI50 does the source give for `CN=C(N)c1ccc(N=C(N)c2ccc(-c3ccc(C(N)=Nc4ccc(C(N)=NC)cc4)cc3)cc2)cc1` here?
A: Its GI50 is 74.4 µM.

Q: And the TGI?
A: The TGI was > 100 µM.

Q: What does the source list for `Clc1nccc2c(-c3csc(-c4c[nH]c5ccc(Br)cc45)n3)c[nH]c12`?
A: GI50: 1.18 µM; TGI: 3.81 µM

Q: With `CCOC(=O)[C@@H](C)C[C@H](Cc1ccccc1)NC(=O)c1csc([C@@H](C[C@H](C(C)C)N(C)C(=O)[C@@H](NC(=O)[C@H]2CCCCN2C)C(C)(C)CC)OC(C)=O)n1` as the compound, how does the GI50 read?
A: The GI50 was < 0.00167 µM.

Q: For `O=C1NC(=S)S/C1=C\c1cn(-c2ccccc2)nc1-c1ccccc1`, which GI50 is on record?
A: The GI50 was 6.83 µM.

Q: And the TGI?
A: The TGI was 39.9 µM.

Q: For `COc1cc(-c2cc(/C=C/C(=O)c3ccc(F)c(F)c3)[nH]n2)cc(OC)c1OC`, which GI50 is on record?
A: The GI50 was 2.27 µM.

Q: What about the TGI of the same compound?
A: Its TGI is 9.47 µM.

Q: Which results are given for `CC1CC2C3CCC4=CC(=O)C=CC4(C)C3(F)C(O)CC2(C)C1(O)C(=O)COP(=O)(O)O` (stereo unspecified)?
A: GI50: > 500 µM; TGI: > 500 µM

Q: `COc1ccc2nc3cc(Cl)ccc3c(NCCCNCCO)c2c1` was tested. Which GI50 did it give?
A: Its GI50 is 0.454 µM.

Q: What about the TGI of the same compound?
A: Its TGI is 1.89 µM.

Q: Which GI50 does the source give for `COc1cnc2c(c1)C(=O)c1c-2n(CCCNC2=NCCS2)c(=O)c2cc(F)ccc12` here?
A: Its GI50 is 0.19 µM.

Q: What about the TGI of the same compound?
A: Its TGI is 2.02 µM.

Q: Which GI50 does the source give for `COc1cc(/C=C/C(=O)c2cccc(-n3cc(-c4cc(OC)c(OC)c(OC)c4)[nH]c3=O)c2)cc(OC)c1OC` here?
A: Its GI50 is 1.57 µM.

Q: What about the TGI of the same compound?
A: The TGI was 3.25 µM.

Q: What does the source list for `C=C1C(=O)O[C@H]2[C@H]1CC/C(COC(=O)c1cc(OC)c(OC)c(OC)c1)=C\CC[C@@]1(C)O[C@@H]21`?
A: GI50: 0.344 µM; TGI: 2.02 µM

Q: With `O=C(Nc1ccc(Oc2ccc3nc(NC(=O)c4ccco4)[nH]c3c2)cc1)Nc1cc(C(F)(F)F)ccc1F` as the compound, how does the GI50 read?
A: Its GI50 is 1.37 µM.

Q: And the TGI?
A: The TGI was 11.5 µM.

Q: How did the GI50 turn out when `COc1ccc2c(c1)OC(N)=C(C#N)C2c1cc(OC)c(OC)c(OC)c1` (stereo unspecified) was run?
A: Its GI50 is 0.0239 µM.

Q: What about the TGI of the same compound?
A: The TGI was 0.0688 µM.

Q: For `COc1cc2oc(-c3cccc(C(=O)Nc4ccc(Cl)cc4)c3)cc(=O)c2c(OC)c1OC`, which GI50 is on record?
A: The GI50 was 3.64 µM.

Q: What about the TGI of the same compound?
A: Its TGI is 85.7 µM.

Q: With `Oc1ccc(Cl)cc1C(c1cc(Cl)ccc1O)C(Cl)(Cl)Cl` as the compound, how does the GI50 read?
A: Its GI50 is 2.58 µM.

Q: What about the TGI of the same compound?
A: Its TGI is 8.11 µM.

Q: Which results are given for `N#CCn1c(=O)c(Oc2ccc(F)cc2F)cc2cnc(NC3CCOCC3)nc21`?
A: GI50: > 18.9 µM; TGI: > 25 µM

Q: How did the GI50 turn out when `Fc1ccc(-c2cc3nc(C(Cl)Cl)nc(-c4ccc(Cl)cc4)n3n2)cc1` was run?
A: Its GI50 is 1.73 µM.

Q: And the TGI?
A: The TGI was 4.12 µM.

Q: What does the source list for `CCCCN(CCCC)C(=O)[C@H](CC)[C@@H]1CC[C@@H](C)[C@@H]([C@H](C)[C@@H](O)[C@@H](C)C(=O)[C@H](CC)C2O[C@]3(C=C[C@@H](O)[C@]4(CC[C@@](C)([C@H]5CC[C@](O)(CC)[C@H](C)O5)O4)O3)[C@H](C)C[C@@H]2C)O1` (stereo partly specified)?
A: GI50: 1.47 µM; TGI: 3.89 µM
